Series [1] deals with T1, α1D adrenoceptor (rat aorta) (Rattus norvegicus, UniProt P23944).
T1 sequence (P23944 1-561): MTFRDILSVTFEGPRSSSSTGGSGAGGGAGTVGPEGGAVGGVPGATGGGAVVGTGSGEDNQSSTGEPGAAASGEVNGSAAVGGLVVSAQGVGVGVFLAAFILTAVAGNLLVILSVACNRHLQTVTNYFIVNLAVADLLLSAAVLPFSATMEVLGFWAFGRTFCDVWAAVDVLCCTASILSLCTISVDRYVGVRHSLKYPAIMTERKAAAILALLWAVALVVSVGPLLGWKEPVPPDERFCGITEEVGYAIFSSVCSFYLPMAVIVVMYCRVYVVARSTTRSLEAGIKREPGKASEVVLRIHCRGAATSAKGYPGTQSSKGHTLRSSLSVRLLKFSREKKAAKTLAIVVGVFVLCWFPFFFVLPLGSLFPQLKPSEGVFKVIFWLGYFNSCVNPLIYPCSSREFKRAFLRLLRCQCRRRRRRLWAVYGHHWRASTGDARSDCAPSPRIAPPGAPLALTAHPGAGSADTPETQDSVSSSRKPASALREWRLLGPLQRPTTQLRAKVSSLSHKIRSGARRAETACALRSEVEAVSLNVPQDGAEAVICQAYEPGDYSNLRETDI
Particulars: for α1D r: Schild plot regression correlation; for α1D slope: Schild plot slope; for type of antagonism at α1D: based on slope and regression (r) of Schild plot; for α1D efficacy: percent of phenylephrine (100%) contraction.

Series [2] addresses T2, α1A (rat submaxillary gland) (Rattus norvegicus, UniProt P43140).
T2 construct: from tissue; host or cells: rat submaxillary gland
T2 sequence (P43140 1-466): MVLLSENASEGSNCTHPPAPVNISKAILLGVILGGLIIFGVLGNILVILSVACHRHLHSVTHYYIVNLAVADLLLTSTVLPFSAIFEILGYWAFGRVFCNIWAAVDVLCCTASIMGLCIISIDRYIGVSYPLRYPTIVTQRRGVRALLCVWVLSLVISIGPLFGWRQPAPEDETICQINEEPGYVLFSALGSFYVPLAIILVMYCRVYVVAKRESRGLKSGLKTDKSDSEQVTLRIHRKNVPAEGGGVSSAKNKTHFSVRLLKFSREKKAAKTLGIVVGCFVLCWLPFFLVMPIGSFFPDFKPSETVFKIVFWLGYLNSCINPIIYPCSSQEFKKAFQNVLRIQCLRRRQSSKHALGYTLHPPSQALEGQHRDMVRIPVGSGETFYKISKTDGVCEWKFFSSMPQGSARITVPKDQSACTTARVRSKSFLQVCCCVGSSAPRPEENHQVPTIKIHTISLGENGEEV
Put plainly: Radioligand binding with [3H]-prazosin, α1A (rat submaxillary gland).

The target of series [3] is T3, α1b (hamster receptor expressed in mouse fibroblasts) (Mesocricetus auratus, UniProt P18841).
T3 construct: expressed in transfected cells; host or cells: mouse fibroblasts
T3 sequence (P18841 1-515): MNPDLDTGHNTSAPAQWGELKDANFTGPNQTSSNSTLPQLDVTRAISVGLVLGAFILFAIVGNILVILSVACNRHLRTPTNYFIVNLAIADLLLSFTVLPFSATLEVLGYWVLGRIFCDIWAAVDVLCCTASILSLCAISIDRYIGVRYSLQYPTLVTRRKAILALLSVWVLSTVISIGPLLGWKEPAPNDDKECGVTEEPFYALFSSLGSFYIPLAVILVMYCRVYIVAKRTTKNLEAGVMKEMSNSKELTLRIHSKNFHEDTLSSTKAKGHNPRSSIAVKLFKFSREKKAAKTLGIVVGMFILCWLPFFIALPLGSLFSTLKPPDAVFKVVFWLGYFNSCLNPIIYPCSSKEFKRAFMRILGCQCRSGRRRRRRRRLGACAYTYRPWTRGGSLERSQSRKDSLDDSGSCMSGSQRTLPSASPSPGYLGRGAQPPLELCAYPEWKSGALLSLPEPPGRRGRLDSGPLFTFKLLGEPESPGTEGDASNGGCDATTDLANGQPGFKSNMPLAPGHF
As to the kind of experiment: Radioligand binding with [3H]-prazosin, α1b (hamster receptor expressed in mouse fibroblasts). An excerpt:
Radioligand Binding Ki (nM)
Exp. Ther. (1995), 274, 97-103.

Series [4] concerns the target T4, α1B adrenoceptor (rat spleen) (Rattus norvegicus, UniProt P15823).
T4 sequence (P15823 1-515): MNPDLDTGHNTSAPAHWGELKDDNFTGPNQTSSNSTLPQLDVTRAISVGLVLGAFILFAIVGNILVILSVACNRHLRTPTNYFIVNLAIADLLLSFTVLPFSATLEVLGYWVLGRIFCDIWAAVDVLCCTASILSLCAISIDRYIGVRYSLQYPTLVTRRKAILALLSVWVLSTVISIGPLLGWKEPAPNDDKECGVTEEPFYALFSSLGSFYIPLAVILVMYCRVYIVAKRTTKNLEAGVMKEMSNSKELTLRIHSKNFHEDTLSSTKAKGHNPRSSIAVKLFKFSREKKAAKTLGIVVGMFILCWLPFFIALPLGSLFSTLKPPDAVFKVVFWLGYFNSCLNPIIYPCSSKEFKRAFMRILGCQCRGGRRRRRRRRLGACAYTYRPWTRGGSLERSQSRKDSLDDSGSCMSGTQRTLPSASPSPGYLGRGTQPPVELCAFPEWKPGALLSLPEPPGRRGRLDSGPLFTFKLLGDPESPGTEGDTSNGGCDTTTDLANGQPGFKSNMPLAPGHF
Particulars: for α1B r: Schild plot regression correlation; for α1B slope: Schild plot slope; for type of antagonism at α1B: based on slope and regression (r) of Schild plot. An excerpt: A cumulative concentration protocol was employed.

In series [5] the target is T5, α1d (rat receptor expressed in mouse fibroblasts) (Rattus norvegicus, UniProt P23944).
T5 construct: expressed in transfected cells; host or cells: mouse fibroblasts
T5 sequence (P23944 1-561): T1 sequence (P23944 1-561)
Put plainly: Radioligand binding with [3H]-prazosin, α1d (rat receptor expressed in mouse fibroblasts).

In the next series the test system is Female Beagle dogs. The settings on record: for IUP ED5mmHg: dose producing 5 mmHg increase in intraurethral pressure; for effect on intraurethral pressure and mean arterial pressure: increasing i.v. doses, dogs, FIGS. 1-4.
The target in series [6] is T6, α1A adrenoceptor (rabbit urethra) (Oryctolagus cuniculus, UniProt O02824).
T6 sequence (O02824 1-466): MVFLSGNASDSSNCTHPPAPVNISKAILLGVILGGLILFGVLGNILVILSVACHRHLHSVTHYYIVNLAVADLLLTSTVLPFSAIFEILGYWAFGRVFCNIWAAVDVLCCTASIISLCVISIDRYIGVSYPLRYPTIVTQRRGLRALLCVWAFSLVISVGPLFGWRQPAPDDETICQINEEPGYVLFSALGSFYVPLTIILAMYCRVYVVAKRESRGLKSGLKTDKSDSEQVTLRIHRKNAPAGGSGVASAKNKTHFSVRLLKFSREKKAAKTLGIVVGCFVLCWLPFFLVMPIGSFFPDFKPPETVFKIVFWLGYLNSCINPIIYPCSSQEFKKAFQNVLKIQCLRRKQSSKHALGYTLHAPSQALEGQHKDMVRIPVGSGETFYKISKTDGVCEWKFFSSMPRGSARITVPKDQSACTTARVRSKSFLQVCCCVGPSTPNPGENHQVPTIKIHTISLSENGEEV
Put plainly: Rabbit urethra α1A subtype tissue bath. It counts as cell-based. An excerpt: Rabbit Urethra α1A Subtype
A cumulative concentration protocol was employed. […] Br. J. Pharmacol. 14, 48-58.

The target in series [7] is T1, α1D adrenoceptor (rat aorta). Put plainly: cell-based.
Where [8] appears, read: i.v., anesthetized dogs, mean ± S.E.M.
Setting [9] is: i.v., anesthetized dogs, dose producing 20 mmHg increase in mean arterial pressure, mean ± S.E.M.

By Ki is commonly meant the equilibrium dissociation constant of an inhibitor or competing ligand from its target. The term EC50 denotes the concentration at which the effect is half-maximal. A high value points to a need for much substance.

Read-outs that look alike come from different tables or passages of the source.

Excerpt for Female Beagle dogs: Female Beagle dogs (Marshall Farms, North Rose, N.Y.) greater that 2 years of age and weighing between 12 and 15 kg were used in these studies. At least 2 weeks prior to any agonist dosing, dogs were instrumented for the chronic measurement of arterial blood pressure by implanting a telemetry transducer/transmitter (TA11PA-C40, Data Sciences International, St. Paul, Minn.) into a carotid artery.
On the test day, dogs fasted since the previous afternoon were pre-anesthetized with thiopental sodium 15 mg/kg i.v. (Pentothal™, Abbott) and intubated. Anesthesia was maintained by allowing the dog to spontaneously breathe a mixture of isoflurane (2.5 to 3 volume %) and oxygen delivered by a Narkomed Standard anesthesia system (North American Drager, Telford, Pa.). An Abbocath-T™ i.v. catheter (18-G, Abbott Laboratories, Abbott Park, Ill.) was inserted into the cephalic vein for the administration of agonists. A telemetry receiver (RA1310, DataSciences) was placed under the head of each dog and was interfaced to a computerized data acquisition system (Modular Instruments Inc.(MI2), Malvern, Pa.) which allowed for the continuous calibrated recording of arterial blood pressure which was electronically filtered to determine its mean value (MAP).
Intraurethral pressure was monitored using a balloon catheter technique previously described (Brune et al., Drug Development Research 34:267-275,1995). Briefly, a 7 Fr catheter balloon catheter (41224-01, Abbott) was inserted into the urethral orifice and advanced approximately 15 cm until the tip was well inside the bladder. The balloon was then inflated with 1 ml of room air and the catheter slowly withdrawn until resistance (corresponding to the bladder neck) was evident. The balloon was then deflated and the catheter withdrawn an additional 2 cm. The balloon was then reinflated and its catheter port connected to a Gould Statham P23Dd pressure transducer interfaced to a computerized data acquisition system (Modular Instruments, Inc., Malvern, Pa.) for the measurement of intraurethral pressure (IUP). The MAP and IUP pressor responses to increasing iv doses of test agonists were obtained simultaneously. The pressor effects of each dose were allowed to return to baseline before the next dose was given.
The dose required to elicit significant and clinically meaningful changes in IUP (5 mm Hg) relative to the dose required to elicit a physiologically significant increase in blood pressure (20 mm Hg) is calculated.
IUP and MAP pressor effects of each agonist dose were expressed as the maximum net change in each pressure over pre-dose baseline levels. Subsequently, the effective doses required to produce a 5 mmHg increase in IUP (IUP ED5mmHg) and a 20 mmHg increase in MAP (MAP ED20mmHg) were estimated from the dose response data from each dog. Relative urethral versus vascular selectivity of each agonist in each dog was estimated using a ratio of these respective potency indices (MAP ED20mmHg/IUP ED5mmHg).

In series [1] (rat aorta), `CCS(=O)(=O)Nc1cccc(Cc2c[nH]cn2)c1C` [Compound A-286569] displayed a α1D r of 0.5 and a α1D slope of 1.1. Moreover, in series [1], the “type of antagonism at α1D” value is recorded as “non-competitive antagonist”. Moreover, the Ki in series [2] is 150 ± 32 nM. Besides, the inhibition constant (Ki) in series [3] is above 10000 nM. In series [4] (rat spleen), this molecule gave a α1B r of 0.6 and a α1B slope of 1.3. The “type of antagonism at α1B” value in series [4] is on record as “non-competitive antagonist”. For the same molecule, the inhibition constant Ki in series [5] is 840 ± 78 nM. Besides, in the series with Female Beagle dogs (setting [8]), the “IUP ED5mmHg” value is listed as 41.9 ± 6.2 nmol/kg. Besides, in the series with Female Beagle dogs (setting [9]), the “MAP ED20mmHg” value turned out to be 201.6 ± 67 nmol/kg. Moreover, in the series with Female Beagle dogs, the “effect on intraurethral pressure and mean arterial pressure” value (shortened to “effect”) is given as “dose-dependent increases”.

The molecule `CCS(=O)(=O)Nc1cccc(Cc2c[nH]cn2)c1` [Compound A-286666] showed a α1D r in series [1] (rat aorta) of 0.9. Further, the α1D slope in series [1] (rat aorta) worked out at 0.93. The “type of antagonism at α1D” value in series [1] is given as “competitive antagonist”. Besides, the Ki was 137 ± 15 nM in series [2], 913 ± 135 nM in series [3] and 287 ± 41 nM in series [5]. Moreover, the α1B r in series [4] (rat spleen) turned out to be 0.9. The molecule further displayed a α1B slope in series [4] (rat spleen) of 0.81. Also, the “type of antagonism at α1B” value in series [4] is listed as “competitive antagonist”.

As for `CC(N)C(O)c1ccccc1` (centres unmarked) [PPA, phenylpropanolamine, reference compound], in series [1] (rat aorta), the α1D efficacy came to 91% and the “α1D agonist activity (in words; merged pD2/efficacy cell)” value was “weak agonist”. For the same molecule, the “α1A agonist activity (in words)” value in series [6] was “weak agonist”. The molecule also gave a α1A efficacy in series [6] (percent of phenylephrine (100%) contraction) of 68%. In addition, in series [2] (rat submaxillary gland, [3H]-prazosin), the “Radioligand Binding Ki α1A (Rat)” value was “weak adrenergic ligand”. Besides, the “α1b binding (in words)” value in series [3] (hamster receptor expressed in mouse fibroblasts, [3H]-prazosin) is “weak adrenergic ligand”. Besides, the α1B efficacy in series [4] (percent of phenylephrine (100%) contraction, rat spleen) was determined as 34%. The “α1B agonist activity (in words; merged pD2/efficacy cell)” value in series [4] (rat spleen) is “weak agonist”. In addition, in series [5] (rat receptor expressed in mouse fibroblasts, [3H]-prazosin), the “α1d binding (in words)” value is given as “weak adrenergic ligand”. Also, the “Selectivity ratio MAP ED20/IUP ED5” value in the series on Female Beagle dogs (calculated for each dog and then averaged) was 0.4. Further, the “IUP ED5mmHg” value with Female Beagle dogs (setting [8]) is 1092 ± 384 nmol/kg. The “MAP ED20mmHg” value in the series with Female Beagle dogs (setting [9]) is reported as 331 ± 80 nmol/kg. Also, the “effect” value with Female Beagle dogs was “dose-dependent increases”.

Turning to `CS(=O)(=O)Nc1c(O)ccc2c1CCCC2C1=NCCN1` (centres unmarked) [Compound A-61603, reference compound], the α1D efficacy in series [1] (rat aorta) amounted to 100%. In series [7], this molecule showed a concentration giving a half-maximal response (EC50) of 2510 nM. The Ki in series [3] (hamster receptor expressed in mouse fibroblasts, [3H]-prazosin, read-out: Radioligand Binding Ki α1b (Hamster)) stood at 1210 nM; in series [5], 1560 ± 169 nM. In the series with Female Beagle dogs (female, Beagle, dog, in vivo, iv), the “MAP ED20mmHg” value is 0.27 ± 0.05 nmol/kg. For the same molecule, the “IUP ED5mmHg” value in the series with Female Beagle dogs (setting [8]) is given as 0.16 ± 0.02 nmol/kg. The “effect” value in the series on Female Beagle dogs is “dose-dependent increases”.

These data come from patent publication US20010039255A1, “Use of alpha1A adrenoceptor agonists with alpha1B and alpha1D antagonism for the treatment of stress urinary incontinence” (priority 2000, published 2001).
